In brackets after ≈: the same amount, converted by molar mass.
Experiments:
[1] = tested on: KARPAS-299; assay: Antitumor activity against human KARPAS-299 cells harboring NMP-ALK xenografted in SCID mouse assessed as tumor regression by measuring T/C ratio at 50 mg/kg administered for 9 days and measured on day 9 (reference value: 100 %); format: functional; conditions: time 9 day
[2] = target: Tyrosine-protein kinase JAK1 (Homo sapiens, UniProt P23458); assay: Inhibition of JAK1 (unknown origin)
[3] = target: Mitogen-activated protein kinase 1 (Homo sapiens, UniProt P28482); assay: Inhibition of MAPK1 (unknown origin)
Mitogen-activated protein kinase 1, sequence (P28482 whole entry): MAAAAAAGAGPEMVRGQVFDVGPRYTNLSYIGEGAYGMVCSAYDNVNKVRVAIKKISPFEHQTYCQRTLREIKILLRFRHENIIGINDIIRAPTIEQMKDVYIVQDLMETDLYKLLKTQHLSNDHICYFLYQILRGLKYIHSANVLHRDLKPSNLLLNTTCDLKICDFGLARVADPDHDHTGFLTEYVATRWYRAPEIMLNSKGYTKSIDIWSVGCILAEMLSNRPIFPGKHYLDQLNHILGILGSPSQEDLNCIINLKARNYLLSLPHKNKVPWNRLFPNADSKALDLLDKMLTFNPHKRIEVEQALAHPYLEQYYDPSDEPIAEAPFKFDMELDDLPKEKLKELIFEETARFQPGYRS

[4] = target: Tyrosine-protein kinase JAK3 (Homo sapiens, UniProt P52333); assay: Inhibition of JAK3 (unknown origin)
[5] = tested on: BaF3; assay: Antiproliferative activity against wild type mouse BaF3 cells assessed as reduction in cell growth incubated for 2 to 3 days by Bright-Glo luciferase assay
[6] = target: Cyclin-dependent kinase 2 (Homo sapiens, UniProt P24941); assay: Inhibition of CDK2 (unknown origin)
[7] = target: Ephrin type-B receptor 4 (Homo sapiens, UniProt P54760); assay: Inhibition of EphB4 (unknown origin)
[8] = tested on: KARPAS-299; assay: Antitumor activity against human KARPAS-299 cells harboring NMP-ALK xenografted in SCID mouse assessed as tumor shrinkage by measuring T/C ratio at 25 mg/kg administered for 9 days and measured on day 9 (reference value: 100 %); format: functional; conditions: time 9 day
[9] = Permeability of compound by PAMPA assay; format: ADME
[10] = target: RAC-alpha serine/threonine-protein kinase (Homo sapiens, UniProt P31749); assay: Inhibition of AKT (unknown origin)
[11] = target: Tyrosine-protein kinase BTK (Homo sapiens, UniProt Q06187); assay: Inhibition of BTK (unknown origin)
[12] = target: Serine/threonine-protein kinase PLK1 (Homo sapiens, UniProt P53350); assay: Inhibition of PLK1 (unknown origin)
[13] = target: Platelet-derived growth factor receptor alpha (Homo sapiens, UniProt P16234); assay: Inhibition of PDGFRalpha (unknown origin)
[14] = target: Receptor tyrosine-protein kinase erbB-2 (Homo sapiens, UniProt P04626); assay: Inhibition of HER2 (unknown origin)
[15] = AUC in rat at 10 mg/kg, po; format: ADME, organism-based; set-up: dose 10 mg/kg; conditions: in vivo
[16] = AUC in mouse at 20 mg/kg, po; format: ADME, organism-based; set-up: dose 20 mg/kg; conditions: in vivo
[17] = Toxicity in SCID mouse xenografted with human KARPAS-299 cells harboring NMP-ALK assessed as reduction in body weight at 25 to 50 mg/kg administered for 9 days and measured on day 9; format: organism-based; conditions: in vivo, 216 h, dose 25-50 mg/kg, time 9 day
[18] = Solubility in DMSO at pH 6.8 by high-throughput solubility assay; format: physicochemical
[19] = target: Fibroblast growth factor receptor 3 (Homo sapiens, UniProt P22607); assay: Inhibition of FGFR3 (unknown origin)
[20] = Cmax in rat at 10 mg/kg, po; format: ADME, organism-based; set-up: route oral, dose 10 mg/kg; conditions: in vivo
[21] = Clearance in mouse at 5 mg/kg, iv; format: ADME, organism-based; conditions: in vivo
[22] = target: Cytochrome P450 3A4 (Homo sapiens, UniProt P08684); assay: Inhibition of CYP3A4 (unknown origin) using midazolam as substrate; format: ADME
Cytochrome P450 3A4, sequence (P08684 whole entry): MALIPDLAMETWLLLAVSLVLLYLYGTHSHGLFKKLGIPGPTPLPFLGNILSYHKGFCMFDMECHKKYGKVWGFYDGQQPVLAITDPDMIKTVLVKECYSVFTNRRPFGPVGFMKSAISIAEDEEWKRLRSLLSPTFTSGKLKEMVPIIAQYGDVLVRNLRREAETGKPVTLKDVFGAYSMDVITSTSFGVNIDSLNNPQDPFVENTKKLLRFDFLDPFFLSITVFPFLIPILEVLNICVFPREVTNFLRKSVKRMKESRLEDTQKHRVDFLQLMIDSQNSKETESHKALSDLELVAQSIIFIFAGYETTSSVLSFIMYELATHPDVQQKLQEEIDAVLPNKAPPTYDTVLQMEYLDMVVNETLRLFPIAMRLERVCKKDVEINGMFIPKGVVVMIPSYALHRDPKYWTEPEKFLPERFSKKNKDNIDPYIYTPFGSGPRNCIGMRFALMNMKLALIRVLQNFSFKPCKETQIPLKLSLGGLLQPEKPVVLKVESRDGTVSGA

[23] = target: Mast/stem cell growth factor receptor Kit (Homo sapiens, UniProt P10721); assay: Inhibition of c-KIT (unknown origin)
[24] = target: Glycogen synthase kinase-3 beta (Homo sapiens, UniProt P49841); assay: Inhibition of GSK3beta (unknown origin)
Glycogen synthase kinase-3 beta, sequence (P49841 whole entry): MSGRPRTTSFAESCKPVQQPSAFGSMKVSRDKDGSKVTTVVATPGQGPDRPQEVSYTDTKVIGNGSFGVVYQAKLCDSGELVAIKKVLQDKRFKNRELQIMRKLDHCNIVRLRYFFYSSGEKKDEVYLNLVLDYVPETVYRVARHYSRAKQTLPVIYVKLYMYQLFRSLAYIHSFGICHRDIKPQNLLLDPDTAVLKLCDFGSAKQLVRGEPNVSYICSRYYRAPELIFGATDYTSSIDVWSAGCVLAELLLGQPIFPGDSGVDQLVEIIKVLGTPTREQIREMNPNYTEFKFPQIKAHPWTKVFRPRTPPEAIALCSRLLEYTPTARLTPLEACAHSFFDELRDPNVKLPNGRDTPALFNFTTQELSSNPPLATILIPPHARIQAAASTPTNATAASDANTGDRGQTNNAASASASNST

[25] = Metabolic stability in rat liver microsomes assessed as intrinsic clearance; format: ADME, Microsome; conditions: read-out: CLH
[26] = Volume of distribution at steady state in rat at 3 mg/kg, iv; format: ADME, organism-based; conditions: in vivo, read-out: Vdss
[27] = target: Epidermal growth factor receptor (Homo sapiens, UniProt P00533); assay: Inhibition of HER1 (unknown origin)
[28] = target: Insulin-like growth factor 1 receptor (Homo sapiens, UniProt P08069); assay: Inhibition of IGF-1R (unknown origin)
[29] = Inhibition of Aurora (unknown origin); set-up: species or system Homo sapiens
[30] = target: Voltage-gated inwardly rectifying potassium channel KCNH2 (Homo sapiens, UniProt Q12809); assay: Inhibition of human ERG by dofetilide binding assay
Voltage-gated inwardly rectifying potassium channel KCNH2, sequence (Q12809 whole entry): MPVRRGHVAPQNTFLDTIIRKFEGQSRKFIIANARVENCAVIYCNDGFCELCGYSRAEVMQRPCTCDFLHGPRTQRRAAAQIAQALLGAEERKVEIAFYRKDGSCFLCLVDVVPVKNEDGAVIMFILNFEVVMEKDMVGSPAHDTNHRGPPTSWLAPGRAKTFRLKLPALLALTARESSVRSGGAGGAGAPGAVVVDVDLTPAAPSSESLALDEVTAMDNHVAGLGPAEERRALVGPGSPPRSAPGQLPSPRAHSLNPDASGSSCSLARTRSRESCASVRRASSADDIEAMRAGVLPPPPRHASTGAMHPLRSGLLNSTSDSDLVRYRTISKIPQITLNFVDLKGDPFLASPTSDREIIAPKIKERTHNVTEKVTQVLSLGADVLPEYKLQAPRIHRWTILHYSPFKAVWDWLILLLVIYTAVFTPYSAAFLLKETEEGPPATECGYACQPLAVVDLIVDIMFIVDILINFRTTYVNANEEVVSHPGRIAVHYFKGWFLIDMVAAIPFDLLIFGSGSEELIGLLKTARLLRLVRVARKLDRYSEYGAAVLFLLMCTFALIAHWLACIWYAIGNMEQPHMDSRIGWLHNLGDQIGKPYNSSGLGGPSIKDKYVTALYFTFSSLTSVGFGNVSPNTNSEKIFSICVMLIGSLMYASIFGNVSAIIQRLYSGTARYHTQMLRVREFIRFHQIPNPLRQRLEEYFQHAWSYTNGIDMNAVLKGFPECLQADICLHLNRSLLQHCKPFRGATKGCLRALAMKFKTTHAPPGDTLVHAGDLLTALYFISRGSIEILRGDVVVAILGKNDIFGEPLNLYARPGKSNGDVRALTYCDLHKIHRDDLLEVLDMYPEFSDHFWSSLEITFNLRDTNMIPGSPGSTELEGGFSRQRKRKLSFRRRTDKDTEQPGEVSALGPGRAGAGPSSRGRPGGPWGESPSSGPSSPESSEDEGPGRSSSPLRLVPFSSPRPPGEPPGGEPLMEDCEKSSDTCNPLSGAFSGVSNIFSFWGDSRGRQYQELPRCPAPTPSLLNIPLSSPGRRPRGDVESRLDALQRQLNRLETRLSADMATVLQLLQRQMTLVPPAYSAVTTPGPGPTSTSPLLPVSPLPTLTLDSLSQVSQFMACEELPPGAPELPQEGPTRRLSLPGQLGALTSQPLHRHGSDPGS

[31] = target: Proto-oncogene tyrosine-protein kinase receptor Ret (Homo sapiens, UniProt P07949); assay: Inhibition of RET (unknown origin)
[32] = target: Tyrosine-protein kinase Lck (Homo sapiens, UniProt P06239); assay: Inhibition of LCK (unknown origin)
[33] = target: Hepatocyte growth factor receptor (Homo sapiens, UniProt P08581); assay: Inhibition of MET (unknown origin)
[34] = target: Tyrosine-protein kinase JAK2 (Homo sapiens, UniProt O60674); assay: Inhibition of JAK2 (unknown origin)
[35] = target: Tyrosine-protein kinase ABL1 (Homo sapiens, UniProt P00519); assay: Inhibition of ABL (unknown origin)
[36] = target: Ephrin type-A receptor 4 (Homo sapiens, UniProt P54764); assay: Inhibition of EphA4 (unknown origin)
Ephrin type-A receptor 4, sequence (P54764 whole entry): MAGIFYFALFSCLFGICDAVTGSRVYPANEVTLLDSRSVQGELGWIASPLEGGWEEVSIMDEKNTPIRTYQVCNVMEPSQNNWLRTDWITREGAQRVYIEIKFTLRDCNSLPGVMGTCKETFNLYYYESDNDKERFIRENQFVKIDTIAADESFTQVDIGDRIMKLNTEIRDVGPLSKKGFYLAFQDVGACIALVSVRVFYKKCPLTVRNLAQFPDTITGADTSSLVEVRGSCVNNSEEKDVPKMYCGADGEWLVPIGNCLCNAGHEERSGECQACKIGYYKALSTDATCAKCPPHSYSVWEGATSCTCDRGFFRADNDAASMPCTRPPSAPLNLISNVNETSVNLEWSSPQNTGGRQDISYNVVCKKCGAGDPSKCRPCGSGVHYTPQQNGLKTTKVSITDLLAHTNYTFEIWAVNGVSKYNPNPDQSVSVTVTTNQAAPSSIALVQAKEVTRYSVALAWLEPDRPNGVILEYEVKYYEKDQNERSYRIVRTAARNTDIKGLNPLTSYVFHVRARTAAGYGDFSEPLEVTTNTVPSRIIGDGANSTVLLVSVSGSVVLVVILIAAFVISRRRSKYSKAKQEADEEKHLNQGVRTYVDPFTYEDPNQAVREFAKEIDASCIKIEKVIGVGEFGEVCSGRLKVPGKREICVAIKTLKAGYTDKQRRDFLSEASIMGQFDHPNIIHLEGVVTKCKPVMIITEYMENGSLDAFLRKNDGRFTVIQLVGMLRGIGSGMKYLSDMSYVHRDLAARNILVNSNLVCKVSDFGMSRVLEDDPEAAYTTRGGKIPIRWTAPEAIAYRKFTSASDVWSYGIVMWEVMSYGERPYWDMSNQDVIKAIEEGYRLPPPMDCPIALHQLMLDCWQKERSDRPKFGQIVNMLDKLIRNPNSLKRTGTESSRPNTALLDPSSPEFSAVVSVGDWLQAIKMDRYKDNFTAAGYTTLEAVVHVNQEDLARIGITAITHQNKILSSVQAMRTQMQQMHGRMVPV

[37] = Cmax in mouse at 20 mg/kg, po; format: ADME, organism-based; set-up: route oral, dose 20 mg/kg; conditions: in vivo
[38] = target: Tyrosine-protein kinase SYK (Homo sapiens, UniProt P43405); assay: Inhibition of SYK (unknown origin)
[39] = Clearance in rat at 3 mg/kg, iv; format: ADME, organism-based; conditions: in vivo
[40] = Metabolic stability in mouse liver microsomes assessed as intrinsic clearance; format: ADME, Microsome; conditions: read-out: CLH
[41] = target: ALK tyrosine kinase receptor (Homo sapiens, UniProt Q9UM73); assay: Inhibition of ALK (unknown origin)
ALK tyrosine kinase receptor, sequence (Q9UM73 whole entry): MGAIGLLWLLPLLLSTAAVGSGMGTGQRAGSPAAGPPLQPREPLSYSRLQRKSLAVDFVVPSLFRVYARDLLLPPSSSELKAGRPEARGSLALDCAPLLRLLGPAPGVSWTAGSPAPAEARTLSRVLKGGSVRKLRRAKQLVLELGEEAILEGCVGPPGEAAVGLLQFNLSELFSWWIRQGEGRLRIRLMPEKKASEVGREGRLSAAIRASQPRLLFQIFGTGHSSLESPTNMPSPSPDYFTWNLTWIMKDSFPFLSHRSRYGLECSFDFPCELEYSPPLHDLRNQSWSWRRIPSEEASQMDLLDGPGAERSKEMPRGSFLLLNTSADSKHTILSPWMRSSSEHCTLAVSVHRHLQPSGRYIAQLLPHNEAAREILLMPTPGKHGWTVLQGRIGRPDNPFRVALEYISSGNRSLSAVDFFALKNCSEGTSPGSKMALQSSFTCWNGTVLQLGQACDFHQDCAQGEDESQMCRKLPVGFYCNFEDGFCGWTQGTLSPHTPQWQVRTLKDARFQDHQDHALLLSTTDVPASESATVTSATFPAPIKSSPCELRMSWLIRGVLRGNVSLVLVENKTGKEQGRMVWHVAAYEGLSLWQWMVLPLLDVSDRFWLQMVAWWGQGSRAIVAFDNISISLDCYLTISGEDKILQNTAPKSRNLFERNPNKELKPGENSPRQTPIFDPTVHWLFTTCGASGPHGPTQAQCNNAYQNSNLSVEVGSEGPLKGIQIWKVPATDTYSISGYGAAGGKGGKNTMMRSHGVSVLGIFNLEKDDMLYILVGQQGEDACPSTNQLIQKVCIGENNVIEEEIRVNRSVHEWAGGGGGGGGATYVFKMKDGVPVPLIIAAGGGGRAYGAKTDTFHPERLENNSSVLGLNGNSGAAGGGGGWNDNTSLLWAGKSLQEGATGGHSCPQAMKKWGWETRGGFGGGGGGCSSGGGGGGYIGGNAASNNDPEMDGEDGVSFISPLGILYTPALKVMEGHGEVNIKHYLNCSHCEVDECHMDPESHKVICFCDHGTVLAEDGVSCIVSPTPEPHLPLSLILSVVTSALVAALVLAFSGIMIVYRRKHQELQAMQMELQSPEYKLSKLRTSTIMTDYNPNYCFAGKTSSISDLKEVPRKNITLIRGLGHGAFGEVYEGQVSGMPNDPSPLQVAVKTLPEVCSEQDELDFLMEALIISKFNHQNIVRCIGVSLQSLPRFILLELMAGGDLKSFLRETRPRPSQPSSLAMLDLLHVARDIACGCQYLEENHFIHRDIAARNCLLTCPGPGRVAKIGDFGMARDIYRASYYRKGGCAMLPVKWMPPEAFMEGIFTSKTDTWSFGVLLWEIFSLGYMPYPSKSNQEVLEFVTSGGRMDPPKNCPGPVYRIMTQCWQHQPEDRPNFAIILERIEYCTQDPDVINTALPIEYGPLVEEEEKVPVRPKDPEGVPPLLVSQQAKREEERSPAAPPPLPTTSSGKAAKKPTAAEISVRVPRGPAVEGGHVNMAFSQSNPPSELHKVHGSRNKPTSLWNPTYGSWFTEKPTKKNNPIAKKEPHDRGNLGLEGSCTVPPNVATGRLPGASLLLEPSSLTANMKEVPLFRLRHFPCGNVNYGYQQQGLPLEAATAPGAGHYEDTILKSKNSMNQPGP

[42] = target: Non-receptor tyrosine-protein kinase TYK2 (Homo sapiens, UniProt P29597); assay: Inhibition of TYK2 (unknown origin)
[43] = Oral bioavailability in rat at 10 mg/kg; format: ADME, organism-based; conditions: in vivo
[44] = target: Fibroblast growth factor receptor 4 (Homo sapiens, UniProt P22455); assay: Inhibition of FGFR4 (unknown origin)
[45] = target: EML4-ALK (Homo sapiens, UniProt Q9UM73); assay: Inhibition EML4-ALK (unknown origin); format: protein assay
[46] = target: Vascular endothelial growth factor receptor 2 (Homo sapiens, UniProt P35968); assay: Inhibition of KDR (unknown origin)
[47] = Volume of distribution at steady state in mouse at 5 mg/kg, iv; format: ADME, organism-based; conditions: in vivo, read-out: Vdss
[48] = tested on: KARPAS-299; assay: Antitumor activity against human KARPAS-299 cells harboring NMP-ALK xenografted in SCID mouse assessed as tumor regression administered for 9 days and measured on day 9; format: functional; conditions: time 9.0 day
[49] = Metabolic stability in human liver microsomes assessed as intrinsic clearance; format: ADME, Microsome; conditions: read-out: CLH
[50] = target: NPM/ALK (Nucleophosmin/ALK tyrosine kinase receptor) (Homo sapiens, UniProt Q9UM73); assay: Inhibition NMP-ALK (unknown origin); format: protein assay
[51] = Oral bioavailability in mouse at 20 mg/kg; format: ADME, organism-based; conditions: in vivo

## Cc1cc(Nc2nc(Nc3ccccc3S(=O)(=O)C(C)C)c3c(C)[nH]nc3n2)c(OC(C)C)cc1C1CCN(C)CC1
[1]
  T/C: -54%
[2]
  IC50: > 10 µM
[3]
  IC50: > 10 µM
[4]
  IC50: > 10 µM
[5]
  IC50: 2.51 µM
[6]
  IC50: 920 nM
[7]
  IC50: 2900 nM
[8]
  T/C: 37%
[9]
  log(permeability): -4.9
[10]
  IC50: 7.6 µM
[11]
  IC50: 9.4 µM
[12]
  IC50: 3.9 µM
[13]
  IC50: 9.7 µM
[14]
  IC50: 7.8 µM
[15]
  AUC: 3.07 µM·h
[16]
  AUC: 4.9 µM·h
[17]
  Activity: Non-Toxic
[18]
  solubility: 114 µM (≈ 67.5 µg/mL)
[19]
  IC50: > 10 µM
[20]
  Cmax: 151 nM
[21]
  clearance: 71 mL/min/kg
[22]
  IC50: > 25 µM
[23]
  IC50: > 10 µM
[24]
  IC50: 4.3 µM
[25]
  microsomal CLint: 33 µL/min/mg
[26]
  Vd: 19.4 L/kg
[27]
  IC50: 960 nM
[28]
  IC50: 470 nM
[29]
  IC50: > 10 µM
[30]
  IC50: 20800 nM
[31]
  IC50: 3.6 µM
[32]
  IC50: 4.3 µM
[33]
  IC50: 8.1 µM
[34]
  IC50: > 10 µM
[35]
  IC50: 1400 nM
[36]
  IC50: > 10 µM
[37]
  Cmax: 429 nM
[38]
  IC50: > 10 µM
[39]
  clearance: 32 mL/min/kg
[40]
  microsomal CLint: 13 µL/min/mg
[41]
  IC50: 4 nM
[42]
  IC50: > 10 µM
[43]
  bioavailability: 35%
[44]
  IC50: > 10 µM
[45]
  IC50: 10 nM
[46]
  IC50: 7.4 µM
[47]
  Vd: 12.1 L/kg
[48]
  Activity: Dose-dependent effect
[49]
  microsomal CLint: 19 µL/min/mg
[50]
  IC50: 30 nM
[51]
  bioavailability: 58%

## Cc1cc2c(Nc3ccccc3S(=O)(=O)C(C)C)nc(Nc3cc(C)c(C4CCN(C)CC4)cc3OC(C)C)nc2[nH]1
[5]
  IC50: 5.73 µM

## Cc1cc(Nc2nc(Nc3ccccc3S(=O)(=O)C(C)C)c3cn[nH]c3n2)c(OC(C)C)cc1C1CCNCC1
[5]
  IC50: 6.22 µM

## Cc1cc(Nc2nc(Nc3ccccc3S(=O)(=O)C(C)C)c3c(N)n[nH]c3n2)c(OC(C)C)cc1C1CCN(C)CC1
[5]
  IC50: 4.5 µM

## Cc1cc(Nc2nc(Nc3ccccc3S(=O)(=O)C(C)C)c3cccnc3n2)c(OC(C)C)cc1C1CCNCC1
[5]
  IC50: 7.23 µM

## Cc1cc(Nc2nc(Nc3ccccc3S(=O)(=O)C(C)C)c3[nH]nnc3n2)c(OC(C)C)cc1C1CCN(C)CC1
[5]
  IC50: > 10 µM

## Cc1cc(Nc2nc(Nc3ccccc3S(=O)(=O)C(C)C)c3cn[nH]c3n2)c(OC(C)C)cc1C1CCN(C)CC1
[5]
  IC50: 5.12 µM
[9]
  log(permeability): -4.1
[18]
  solubility: > 175 µM
[22]
  IC50: 3.3 µM
[25]
  microsomal CLint: 30 µL/min/mg
[30]
  IC50: 1000 nM
[40]
  microsomal CLint: 37 µL/min/mg
[49]
  microsomal CLint: 32 µL/min/mg

## Cc1cc(Nc2nc(Nc3ccccc3S(=O)(=O)C(C)C)c3cc[nH]c3n2)c(OC(C)C)cc1C1CCN(C)CC1
[5]
  IC50: 3.42 µM
[9]
  log(permeability): < -3.3
[15]
  AUC: 7.19 µM·h
[16]
  AUC: 5.98 µM·h
[18]
  solubility: 10.4 µM (≈ 6 µg/mL)
[20]
  Cmax: 291 nM
[21]
  clearance: 58 mL/min/kg
[22]
  IC50: 4.5 µM
[25]
  microsomal CLint: 34 µL/min/mg
[26]
  Vd: 13.7 L/kg
[30]
  IC50: 1700 nM
[37]
  Cmax: 425 nM
[39]
  clearance: 15 mL/min/kg
[40]
  microsomal CLint: 62 µL/min/mg
[43]
  bioavailability: 35%
[47]
  Vd: 10.8 L/kg
[49]
  microsomal CLint: 25 µL/min/mg
[51]
  bioavailability: 59%

## Cc1cc(Nc2nc(Nc3ccccc3S(=O)(=O)C(C)C)c3c(C)n[nH]c3n2)c(OC(C)C)cc1C1CCNCC1
[5]
  IC50: 5.54 µM

## Cc1cc2c(Nc3ccccc3S(=O)(=O)C(C)C)nc(Nc3cc(C)c(C4CCNCC4)cc3OC(C)C)nc2[nH]1
[5]
  IC50: 5.41 µM

## Cc1cc(Nc2nc(Nc3ccccc3S(=O)(=O)C(C)C)c3cc[nH]c3n2)c(OC(C)C)cc1C1CCNCC1
[5]
  IC50: 2.22 µM
[9]
  log(permeability): -5.7
[16]
  AUC: 0.406 µM·h
[18]
  solubility: 8.1 µM (≈ 4.56 µg/mL)
[21]
  clearance: 40 mL/min/kg
[22]
  IC50: 4.6 µM
[25]
  microsomal CLint: 14 µL/min/mg
[37]
  Cmax: 51 nM
[40]
  microsomal CLint: 15 µL/min/mg
[47]
  Vd: 7.3 L/kg
[49]
  microsomal CLint: 22 µL/min/mg
[51]
  bioavailability: 3%

## Cc1cc(Nc2nc(Nc3ccccc3S(=O)(=O)C(C)C)c3ccccc3n2)c(OC(C)C)cc1C1CCN(C)CC1
[5]
  IC50: 3.24 µM

## Cc1cc(NC2=NC3NCCCC3C(Nc3ccccc3S(=O)(=O)C(C)C)=N2)c(OC(C)C)cc1C1CCNCC1 (configuration not stated)
[5]
  IC50: 2.03 µM

## Cc1cc(Nc2cc(Nc3ccccc3S(=O)(=O)C(C)C)c3cc[nH]c3n2)c(OC(C)C)cc1C1CCN(C)CC1
[5]
  IC50: 4.91 µM
[41]
  IC50: > 25000 nM

## COc1ccc2nc(Nc3cc(C)c(C4CCN(C)CC4)cc3OC(C)C)nc(Nc3ccccc3S(=O)(=O)C(C)C)c2c1
[5]
  IC50: 3.94 µM

## Cc1cc(Nc2cc(Nc3ccccc3S(=O)(=O)C(C)C)nc3[nH]ccc23)c(OC(C)C)cc1C1CCN(C)CC1
[5]
  IC50: 2.6 µM
